# According to PMC8585947, “Structure of Escherichia coli cytochrome bd-II type oxidase with bound aurachin D” (Nature Communications, 2021):
# Columns and labels:
# [1] = biological target: T1, cytochrome bd-II oxidase subunit AppC (Escherichia coli, UniProt P26459); test: duroquinol:O2 oxidoreductase activity of isolated bd-II, Clark-type oxygen electrode; format: biochemical
# T1 construct: bd-II oxidase (AppC, AppB, AppX), C-terminal His-tag on AppC; with AppB, AppX
# [2] = biological target: T1, cytochrome bd-II oxidase subunit AppC; test: duroquinol:O2 oxidoreductase inhibition (Clark electrode); format: biochemical
# [3] = biological target: cytochrome bd-II oxidase subunit AppC (Escherichia coli, UniProt P26459, D239N); test: biochemical
# cytochrome bd-II oxidase subunit AppC (Escherichia coli, UniProt P26459, D239N), sequence (P26459 whole entry, stated change not applied): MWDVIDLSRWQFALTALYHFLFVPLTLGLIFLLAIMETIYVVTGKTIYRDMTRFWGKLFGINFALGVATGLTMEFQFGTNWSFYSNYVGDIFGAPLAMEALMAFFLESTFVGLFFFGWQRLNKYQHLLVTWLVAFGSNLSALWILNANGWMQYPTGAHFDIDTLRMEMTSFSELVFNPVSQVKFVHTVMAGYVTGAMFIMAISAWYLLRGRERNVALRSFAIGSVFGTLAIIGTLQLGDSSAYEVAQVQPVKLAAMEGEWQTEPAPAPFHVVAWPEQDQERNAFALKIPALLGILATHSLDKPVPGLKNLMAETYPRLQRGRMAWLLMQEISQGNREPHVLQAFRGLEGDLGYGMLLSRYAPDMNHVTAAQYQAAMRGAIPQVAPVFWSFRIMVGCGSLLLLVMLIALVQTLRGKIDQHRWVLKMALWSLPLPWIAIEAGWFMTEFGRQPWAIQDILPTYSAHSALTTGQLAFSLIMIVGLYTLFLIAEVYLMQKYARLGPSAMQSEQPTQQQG
# cytochrome bd-II oxidase subunit AppC (Escherichia coli, UniProt P26459, D239N), sequence (P24244 whole entry, further chain): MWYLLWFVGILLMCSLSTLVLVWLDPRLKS
# cytochrome bd-II oxidase subunit AppC (Escherichia coli, UniProt P26459, D239N), sequence (P26458 whole entry, further chain): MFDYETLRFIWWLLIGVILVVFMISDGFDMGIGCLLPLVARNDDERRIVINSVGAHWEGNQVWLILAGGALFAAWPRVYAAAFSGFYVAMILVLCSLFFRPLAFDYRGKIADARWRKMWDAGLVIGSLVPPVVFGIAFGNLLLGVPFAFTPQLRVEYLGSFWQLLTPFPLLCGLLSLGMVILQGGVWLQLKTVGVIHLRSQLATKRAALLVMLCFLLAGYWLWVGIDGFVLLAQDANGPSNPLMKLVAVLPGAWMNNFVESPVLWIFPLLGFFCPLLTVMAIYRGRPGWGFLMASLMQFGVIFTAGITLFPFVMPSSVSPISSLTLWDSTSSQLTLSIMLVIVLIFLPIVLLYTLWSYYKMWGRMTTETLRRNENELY
# [4] = biological target: cytochrome bd-II oxidase subunit AppB (Escherichia coli, UniProt P26458)
# cytochrome bd-II oxidase subunit AppB, sequence (P26458 whole entry): as the sequence (P26458 whole entry, further chain) above
# cytochrome bd-II oxidase subunit AppB, sequence (P26459 whole entry partner): as the sequence (P26459 whole entry, stated change not applied) above
# cytochrome bd-II oxidase subunit AppB, sequence (P24244 whole entry partner): as the sequence (P24244 whole entry, further chain) above
# T1 sequence (P24244 whole entry): as the sequence (P24244 whole entry, further chain) above
# T1 sequence (P26458 whole entry, further chain): as the sequence (P26458 whole entry, further chain) above
# T1 sequence (P26459 whole entry): as the sequence (P26459 whole entry, stated change not applied) above
compound,measurement,setting,value
CC(C)=CCC/C(C)=C/CC/C(C)=C/Cc1c(C)n(O)c2ccccc2c1=O [aurachin C],IC50,[1],7.1 nM
CC(C)=CCC/C(C)=C/CC/C(C)=C\Cc1c(C)[nH]c2ccccc2c1=O [aurachin D],IC50,[2],11.1 nM
same,IC50,[3],60.7 nM
COC1=C(OC)C(=O)C(C/C=C(\C)CC/C=C(\C)CC/C=C(\C)CC/C=C(\C)CC/C=C(\C)CC/C=C(\C)CC/C=C(\C)CCC=C(C)C)=C(C)C1=O [ubiquinone-8],cryo-EM structure at 3.0 Å,[4],cleft towards the periplasmic space filled with an extended electron density that was perfectly fitted as ubiquinone-8
